Consider 33 compounds from US20030186423A1, “Amidase from variovorax” (Degussa AG, priority 2001, published 2003).

Common to all, as to type: biochemical, Variovorax paradoxus
Assay [1] concerns D-amidase. Description: Kinetic cleavage of racemic amino acid amides: enantioselectivity as a function of the conversion. The procedure: To evaluate the suitability for kinetic cleavage of racemic DL-Tle-NH2, the enantioselectivity was determined as a function of the conversion.
DL-Valin-, DL-leucin- and DL-phenylalaninamide were alos tested in this respect. For this, the enantioselectivity was determined as function of the conversion with partly purified enzyme from Variovorax paradoxus 19-3 after the 1st chromatography step.
(§1) The separation and quantitative determination of the enantiomers D- and L-tert-leucine were carried out by a “chiral derivatization” on the basis of o-phthaldialdehyde (OPA)/N-isobutyryl-L-cysteine or N-isobutyryl-D-cysteine (Brückner, H.; Wittner R. and Godel H. (1991), Fully automated high-performance liquid chromatographic separation of DL-amino acids derivatized with o-Phthaldialdehyde together with N-isopropyl-cysteine. Application to food samples. Anal. Biochem. 144, 204-206). The diastereomeric isoindole derivatives formed were separated on an RP-18 (reversed phase) column and detected by fluorescence. A two-buffer system of aqueous acetate buffer and an acetonitrile/water mixture was used as the mobile phase.

Assay [2] concerns D-amidase. The assay can be described thus: Enzyme test for amino acid amides and α-hydroxycarboxylic acid amides (HPLC or NH4+ determination). As to conditions: for Activity with respect to Tle-NH2 / Specific activity: substrate 40 mM; for Activity with respect to Tle-NH2: DL-Tle-NH2 = 1; for Specific activity: partly purified D-amidase after the 2nd chromatography step (0.56 U/mg), Pro-, Lac-, MHA-NH2 by NH4+ determination; for Rel. activity with respect to D and L: activity for the lower enantiomer set at 1. The method, then:
For prolinamide, and the α-hydroxycarboxylic acid amides lactic acid amide (Lac-NH2) and 2-hydroxy-4-methylmercaptobutyric acid amid (MHA-NH2), the methionine-analogous α-hydroxycarboxylic acid amide, determination of the product with the previous HPLC analysis is not possible. For these substrates, the activity was determined with the aid of NH4^+ determination. […] All the substrates were employed in the enzyme test at 40 mM. In the 4th column, for further comparison the activity for the lower enantiomer has been set at 1 and a relative activity for the preferred enantiomer has been calculated therefrom.
(§2) In the conversion of tert-leucinamide (gen. acid amides) by the D-amidase, the formation of ammonia or ammonium ions and tert-leucine (gen. acid) in equimolar amounts occurs. […] The change in concentration of the components participating can be measured in an enzyme test, which comprises incubation of the following test batch for 10-60 minutes at 30° C.
(§3) The enzyme test was started by addition of the substrate and the reaction was stopped by heating at 95° C. for three minutes. The analysis of the reaction products was carried out for ammonium ions by enzymatic determination of ammonium by glutamate dehydrogenase (Bergmeyer, H.,U., and Beutler, H.-O. (1985) Ammonia. In: Methods of Enzymatic Analysis. VCH-Verlag, 3rd edition, vol. 8: 454-461, Weinheim) and for D- and L-tert-leucine by means of HPLC (Bruckner, H., Wittner R., and Godel H., (1991) Fully automated high-performance liquid chromatographic separation of DL-amino acids derivatized with o-phthaldialdehyde together with N-isopropyl-cysteine. Application to food samples. Anal. Biochem. 144(1): 204-206). Batches to which no substrate were added served as controls.
as §1

Assay [3] relates to D-amidase. The assay can be described thus: Enzyme test for acid amides, activity by determination of ammonium ions with glutamate dehydrogenase. The conditions noted are these: for Activity with respect to Tle-NH2: DL-Tle-NH2 = 1; for Relative act.: partly purified D-amidase after the 2nd chromatography step (0.51 U/mg). The procedure:
The activity was measured by determination of the ammonium ions with glutamate dehydrogenase (Bergmeyer, H. U., and Beutler, H.-O. (1985), Ammonia. In: Methods of Enzymatic Analysis. VCH-Verlag, 3rd edition, vol. 8: 454-461, Weinheim). […] The substrates were employed in the enzyme test at 40 mM, except for succinic acid diamide and adipic acid diamide, each at 10 mM, and benzylamide at 20 mM. Since the activities were determined only at in each case one substrate concentration, relative activities are stated.
as §2, §3
The enzyme glutamate dehydrogenase (GluDH; E.C.1.4.1.3) converts 2-oxoglutarate into L-glutamate, ammonium ions being consumed and NADH being oxidized to NAD+(Bergmeyer, H.,U. and Beutler, H.-O. (1985), Ammonia. In: Methods of Enzymatic Analysis. VCH-Verlag, 3rd edition, vol. 8: 454-461, Weinheim). The amount of NADH consumed during the reaction is equivalent to the amount of ammonium ions. The change in the concentration of NADH is the measurement parameter and can be determined spectrophotometrically at a wavelength of 340 nm.
The test components were pipetted into cells of plastic (1.5 ml semimicro disposable cells, Brand) and mixed and the extinction at 340 nm was determined after 5 min. 10 μl GluDH were then added, and after the reaction had gone to completion, as a rule after 30 min, the extinction was measured again.

The mark [4] stands for this setting: conversion 4%, partly purified enzyme after the 1st chromatography step.
Setting [5] is: conversion 51%, partly purified enzyme after the 1st chromatography step.

Each structure is given as a SMILES string.

On to `CC(C)C[C@H](N)C(N)=O` (racemic) [DL-Leu-NH2], for which the E value with D-amidase [1] (conversion 4%) was determined as 470; with D-amidase [1] (conversion 18%), 130; in the assay on D-amidase [1] (conversion 33%) it was 120; with D-amidase [1] (conversion 40%) it was 114; in the assay on D-amidase [1] (conversion 48%), 53; in the assay on D-amidase [1] (conversion 51%), 41. Besides, the “ee D-Val” value with D-amidase [1] (setting [4]) amounted to 99.6%; in the assay with D-amidase [1] (conversion 18%, partly purified enzyme after the 1st chromatography step), 98.1%; in the assay on D-amidase [1] (conversion 33%, partly purified enzyme after the 1st chromatography step), 97.3%; in the assay with D-amidase [1] (conversion 40%, partly purified enzyme after the 1st chromatography step), 96.7%; in the assay with D-amidase [1] (conversion 48%, partly purified enzyme after the 1st chromatography step), 90.8%; in the assay on D-amidase [1] (setting [5]) it was 86.7%.

With `CSCCC(O)C(N)=O` (racemic) [DL-MHA-NH2, 2-hydroxy-4-methylmercaptobutyric acid amid], in the assay with D-amidase [2], the “Activity with respect to Tle-NH2” value was 150 and the Specific activity amounted to 82 U/mg.

As for `CSCCC(N)C(N)=O` (racemic) [DL-Met-NH2], in the assay with D-amidase [2], the “Rel. activity with respect to D and L” value is reported as 2.7; the “Activity with respect to Tle-NH2” value turned out to be 230; the Specific activity is recorded as 130 U/mg.

`NC(=O)C(N)Cc1ccccc1` (racemic) [DL-Phe-NH2, DL-phenylalaninamide]: the E value in the assay on D-amidase [1] (conversion 4%) was 5.6; with D-amidase [1] (conversion 14%) it was 5.2; in the assay on D-amidase [1] (conversion 26%) it was 5.1; in the assay on D-amidase [1] (conversion 36%), 5.2; with D-amidase [1] (conversion 51%), 5.1. Moreover, the “ee D-Val” value in the assay with D-amidase [1] (setting [4]) is listed as 68.8%; in the assay with D-amidase [1] (conversion 14%, partly purified enzyme after the 1st chromatography step), 65.1%; with D-amidase [1] (conversion 26%, partly purified enzyme after the 1st chromatography step), 61.5%; in the assay on D-amidase [1] (conversion 36%, partly purified enzyme after the 1st chromatography step), 58.3%; with D-amidase [1] (setting [5]), 50.9%. For the same compound, the “E value (average)” value with D-amidase [1] (racemic amide, calculated from Table 3) is 5.

For the compound `NC(=O)C(N)Cc1c[nH]c2ccccc12` (racemic) [DL-Trp-NH2], in the assay with D-amidase [2], the “Rel. activity with respect to D and L” value was determined as 2.5; the “Activity with respect to Tle-NH2” value came out at 160; the Specific activity amounted to 86 U/mg.

Regarding `CC(N)=O` [Acetamide], in the assay with D-amidase [3] (substrate 40 mM), the “Activity with respect to Tle-NH2” value is 4.0 and the Relative act. is on record as 2.1 U/mg.

On to `CC(=O)CC(N)=O` [Acetoacetamide], for which, in the assay on D-amidase [3] (substrate 40 mM), the “Activity with respect to Tle-NH2” value stood at 130 and the Relative act. is listed as 58 U/mg.

For the compound `NC(=O)CCCCC(N)=O` [Adipic acid diamide], in the assay on D-amidase [3] (substrate 10 mM), the “Activity with respect to Tle-NH2” value was 14 and the Relative act. turned out to be 7.0 U/mg.

Consider `CCCC(N)=O` [Butyramide], for which, in the assay on D-amidase [3] (substrate 40 mM), the “Activity with respect to Tle-NH2” value was 37 and the Relative act. came out at 17 U/mg.

`C[C@@H](N)C(N)=O` [D-Ala-NH2]: in the assay on D-amidase [2], the “Rel. activity with respect to D and L” value worked out at 3.0; the “Activity with respect to Tle-NH2” value was 44; the Specific activity came out at 23 U/mg.

For the compound `CC(O)C(N)=O` [D-Lac-NH2, lactic acid amide], in the assay on D-amidase [2], the “Rel. activity with respect to D and L” value came to 1; the “Activity with respect to Tle-NH2” value amounted to 59; the Specific activity was 29 U/mg.

Consider `CC(C)C[C@@H](N)C(N)=O` [D-Leu-NH2], for which, in the assay with D-amidase [2], the “Rel. activity with respect to D and L” value turned out to be 15; the “Activity with respect to Tle-NH2” value stood at 400; the Specific activity came out at 220 U/mg.

Take `NC(=O)[C@H](N)Cc1ccccc1` [D-Phe-NH2]: in the assay with D-amidase [2], the “Rel. activity with respect to D and L” value is listed as 4.6; the “Activity with respect to Tle-NH2” value is recorded as 890; the Specific activity was found to be 500 U/mg.

In the assay on D-amidase [1] (range from 40 to 50% conversion, partly purified enzyme after the 1st chromatography step), `N[C@H](Cc1ccccc1)C(=O)O` [D-Phe] yielded an enantioselectivity of around 55%.

As for `NC(=O)[C@@H]1CCCN1` [D-Pro-NH2, prolinamide], in the assay with D-amidase [2], the “Rel. activity with respect to D and L” value is 1; the “Activity with respect to Tle-NH2” value worked out at 24; the Specific activity is 12 U/mg.

As for `CC(C)[C@@H](N)C(N)=O` [D-Val-NH2], in the assay with D-amidase [2], the “Rel. activity with respect to D and L” value was determined as 11; the “Activity with respect to Tle-NH2” value is reported as 13; the Specific activity turned out to be 6.9 U/mg.

Take `NC=O` [Formamide]: in the assay on D-amidase [3] (substrate 40 mM), the “Activity with respect to Tle-NH2” value is 0.13 and the Relative act. worked out at 0.061 U/mg.

`CC(C)C(N)=O` [Isobutyramide]: in the assay on D-amidase [3] (substrate 40 mM), the “Activity with respect to Tle-NH2” value is reported as 33 and the Relative act. came out at 15 U/mg.

Turning to `C[C@H](N)C(N)=O` [L-Ala-NH2], in the assay with D-amidase [2], the “Rel. activity with respect to D and L” value was determined as 1; the “Activity with respect to Tle-NH2” value is recorded as 15; the Specific activity was found to be 7.7 U/mg.

Regarding `CC[C@H](C)[C@H](N)C(N)=O` [L-Ile-NH2], in the assay with D-amidase [2], the “Activity with respect to Tle-NH2” value is 0.35 and the Specific activity came out at 0.17 U/mg.

On to `CC(O)C(N)=O` [L-Lac-NH2, lactic acid amide], for which, in the assay on D-amidase [2], the “Rel. activity with respect to D and L” value was 1.1; the “Activity with respect to Tle-NH2” value amounted to 66; the Specific activity came to 33 U/mg.

As for `CC(C)C[C@H](N)C(N)=O` [L-Leu-NH2], in the assay on D-amidase [2], the “Rel. activity with respect to D and L” value is reported as 1; the “Activity with respect to Tle-NH2” value amounted to 26; the Specific activity came out at 15 U/mg.

As for `CSCC[C@H](N)C(N)=O` [L-Met-NH2], in the assay with D-amidase [2], the “Rel. activity with respect to D and L” value was determined as 1; the “Activity with respect to Tle-NH2” value is 86; the Specific activity stood at 48 U/mg.

With `NC(=O)[C@@H](N)Cc1ccccc1` [L-Phe-NH2], in the assay with D-amidase [2], the “Rel. activity with respect to D and L” value came to 1; the “Activity with respect to Tle-NH2” value is reported as 190; the Specific activity is given as 110 U/mg.

As to `NC(=O)[C@@H]1CCCN1` [L-Pro-NH2, prolinamide], in the assay with D-amidase [2], the “Rel. activity with respect to D and L” value turned out to be 2.3; the “Activity with respect to Tle-NH2” value is 56; the Specific activity was found to be 28 U/mg.

`NC(=O)[C@@H](N)Cc1c[nH]c2ccccc12` [L-Trp-NH2]: in the assay with D-amidase [2], the “Rel. activity with respect to D and L” value was 1; the “Activity with respect to Tle-NH2” value was 62; the Specific activity was found to be 34 U/mg.

In the case of `NC(=O)[C@@H](N)Cc1ccc(O)cc1` [L-Tyr-NH2], in the assay on D-amidase [2], the “Activity with respect to Tle-NH2” value is listed as 100 and the Specific activity was 47 U/mg.

With `CC(C)[C@H](N)C(N)=O` [L-Val-NH2], in the assay on D-amidase [2], the “Rel. activity with respect to D and L” value is 1; the “Activity with respect to Tle-NH2” value is reported as 1.2; the Specific activity came out at 0.59 U/mg.

Take `NC(=O)CC(N)=O` [Malonic acid diamide]: in the assay with D-amidase [3] (substrate 40 mM), the “Activity with respect to Tle-NH2” value turned out to be 2.9 and the Relative act. is given as 1.5 U/mg.

For `NC(=O)c1cccnc1` [Nicotinamide], in the assay on D-amidase [3] (substrate 40 mM), the “Activity with respect to Tle-NH2” value is reported as 19 and the Relative act. came to 8.5 U/mg.

As to `CCC(N)=O` [Propionamide], in the assay with D-amidase [3] (substrate 40 mM), the “Activity with respect to Tle-NH2” value was determined as 26 and the Relative act. amounted to 12 U/mg.

For `NC(=O)CCC(N)=O` [Succinic acid diamide], in the assay on D-amidase [3] (substrate 10 mM), the “Activity with respect to Tle-NH2” value is reported as 2.1 and the Relative act. is reported as 1.1 U/mg.

`CCCCC(N)=O` [Valeric acid amide]: in the assay with D-amidase [3] (substrate 40 mM), the “Activity with respect to Tle-NH2” value amounted to 36 and the Relative act. amounted to 16 U/mg.
